The values below come from PubChem BioAssay (NCI).

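A five-concentration, 48-hour dose response in 96-well plates underlies each endpoint, interpolated linearly between surrounding concentrations. At the TGI there is no net growth.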 Bounds are passed on as bounds.

Holding throughout (test): NCI tumour cell line growth inhibition, 48 h
The subject of experiment [1] is T-47D breast.
Experiment [2] has as its system NCI/ADR-RES ovarian.
For experiment [3], the system named is K-562 leukemia.
In experiment [4] the test system is HOP-62 NSCLC.
Experiment [5] has as its system SK-MEL-2 melanoma.
The subject of experiment [6] is HCT-15 colon.
The test system of experiment [7] is M14 melanoma.
The subject of experiment [8] is HL-60(TB) leukemia.
Experiment [9] has as its system NCI-H522 lung.
The subject of experiment [10] is A549 NSCLC.
The test system of experiment [11] is HT29 colon.
In experiment [12] the test system is CAKI-1 renal.
The test system of experiment [13] is SF-539 CNS.
Experiment [14] relates to BT-549 breast.
The test system of experiment [15] is HCC-2998 colon.
Experiment [16] deals with KM12 colon.
Experiment [17] relates to SF-295 CNS.
For experiment [18], the system named is PC-3 prostate.
In experiment [19] the test system is NCI-H23 lung.

Regarding `O=Nc1c(NO)ccc2nn(-c3ccccc3)nc12`, the TGI in experiment [1], in experiment [2], in [3], in [4], in experiment [5] and in experiment [6] was > 100 µM throughout. Also, the TGI in [7] is > 100 µM; in experiment [8], > 100 µM; in [9], 13.2 µM; in experiment [10], > 100 µM; in experiment [11], > 100 µM; in experiment [12] it was 71.3 µM. Also, the TGI in experiment [13] is 18.4 µM; in experiment [14], > 100 µM; in [15], 85.5 µM; in experiment [16] it was > 100 µM; in [17] it was > 100 µM; in experiment [18], > 100 µM.

`O=C(c1cccs1)N(Cc1cccnc1)C(=S)N(Cc1cccnc1)C(=O)c1cccs1`: the TGI in [1], in experiment [2], in experiment [3], in [4], in experiment [5] and in [6] was > 100 µM throughout. Also, the TGI in [7], in experiment [8], in experiment [9], in [19], in experiment [10] and in experiment [11] was > 100 µM in each case. Besides, the TGI in [12] is > 100 µM; in experiment [13], 88.7 µM; in [14], > 100 µM; in experiment [15], > 100 µM; in experiment [16], > 100 µM; in [17] it was > 100 µM. In addition, the TGI in experiment [18] is > 100 µM.

In the case of `CC(C)NC(=O)OCc1c(COC(=O)NC(C)C)c(-c2ccc[n+](COC(=O)C(C)(C)C)c2)n2c1CCC2`, the TGI in experiment [1], in experiment [2], in experiment [3], in experiment [4], in [5] and in experiment [6] was > 100 µM in each case. Further, the TGI in [7] is > 100 µM; in [8], > 94.9 µM; in [9], > 81.5 µM; in experiment [19], > 100 µM; in experiment [10] it was > 100 µM; in experiment [11], > 100 µM. For the same compound, the TGI in [12] is 99.7 µM; in experiment [13], > 100 µM; in experiment [14], > 100 µM; in experiment [15], > 100 µM; in experiment [16], > 100 µM; in [17] it was > 100 µM. Further, in experiment [18], the TGI was > 100 µM.

On to `Cc1nnc2n1N=C(c1cc(F)c(Cl)cc1Cl)/C(=C/c1ccc3c(c1)OCO3)S2`, for which the TGI in [1], in [2], in experiment [3], in experiment [4], in experiment [5] and in experiment [6] was > 100 µM in each case. Further, the TGI in experiment [7] is > 100 µM; in [8] it was > 100 µM; in experiment [9], 78.2 µM; in experiment [19], > 100 µM; in experiment [10], > 100 µM; in experiment [11], > 100 µM. For the same compound, the TGI in [12], in experiment [13], in experiment [14], in experiment [15], in experiment [16] and in experiment [17] was > 100 µM in each case. In [18], the TGI was > 100 µM.

Consider `O=c1cc(-c2cccc(OCc3ccccc3)c2)[nH]c2cc3c(cc12)OCO3`, for which the TGI in experiment [1] was > 100 µM; in [2], 0.462 µM; in [3] it was > 100 µM; in experiment [4], 9.98 µM; in [5], 5.88 µM; in [7], > 84.5 µM. In addition, the TGI in experiment [8] is 0.412 µM; in experiment [9], 1.42 µM; in experiment [19] it was 15 µM; in experiment [10] it was > 22.7 µM; in [11] it was > 97.3 µM; in [12], > 50.8 µM. For the same compound, the TGI is 0.564 µM in [13]; > 100 µM in experiment [14]; 0.751 µM in experiment [15]; > 100 µM in [16]; 14.4 µM in experiment [17]; > 100 µM in [18].

Take `N#CC1(C#N)C(c2ccccc2)C=CC(c2ccc([N+](=O)[O-])cc2)C1(C#N)C#N` (stereo not given): the TGI is 7.27 µM in [1]; > 74.4 µM in [2]; > 100 µM in experiment [3]; 31.7 µM in [4]; 31.6 µM in [5]; 16.5 µM in [6]. Besides, the TGI in experiment [7] was 15.7 µM; in experiment [8], 0.574 µM; in experiment [9], 9.48 µM; in experiment [19] it was 27.4 µM; in experiment [10], 32 µM; in [11], > 38.5 µM. Moreover, the TGI in experiment [12] is 13.1 µM; in experiment [13], 8.38 µM; in experiment [14], 24.3 µM; in [15] it was 42.9 µM; in [16] it was 52.5 µM; in experiment [17], 33.7 µM. The compound further had a TGI in experiment [18] of 25 µM.

In the case of `COc1ccc(-n2sc3ncc([N+](=O)[O-])cc3c2=O)cc1`, the TGI in experiment [1], in experiment [2], in experiment [4], in experiment [5], in experiment [6] and in experiment [7] was > 100 µM each time. Besides, the TGI in [8], in experiment [9], in experiment [19], in experiment [10], in experiment [11] and in experiment [13] was > 100 µM throughout. Further, the TGI in experiment [14], in experiment [15], in experiment [16], in experiment [17] and in [18] was > 100 µM in each case.

Turning to `CCc1ccccc1NC(=O)C(=O)CC(=O)c1sc(Nc2ccccc2Cl)nc1C`, the TGI in experiment [1] was > 100 µM; in experiment [2], > 100 µM; in experiment [3], > 100 µM; in [4] it was > 100 µM; in [5] it was 56.1 µM; in [6], 92 µM. Also, the TGI is 63.7 µM in experiment [7]; > 100 µM in [8]; 47.5 µM in experiment [9]; > 100 µM in experiment [19]; 80 µM in experiment [10]; > 100 µM in experiment [11]. Besides, the TGI is > 100 µM in experiment [12]; 66.1 µM in experiment [13]; > 100 µM in [14]; > 100 µM in experiment [15]; > 100 µM in [16]; 99.2 µM in experiment [17]. For the same compound, in experiment [18], the TGI is > 100 µM.

For the compound `CCOC(=O)c1ccc(N=c2oc3ccc(OC)cc3cc2-c2nc3ccccc3[nH]2)cc1`, the TGI in experiment [1], in experiment [2], in experiment [3], in experiment [4], in [5] and in experiment [6] was > 100 µM each time. Moreover, the TGI in [7], in [8], in experiment [9], in experiment [19], in experiment [10] and in [11] was > 100 µM throughout. Further, the TGI was > 100 µM in experiment [12]; 6.03 µM in [13]; > 100 µM in experiment [14]; > 100 µM in [15]; > 100 µM in experiment [16]; > 100 µM in experiment [17]. Further, the TGI in experiment [18] was > 100 µM.

Take `c1cc(C[S+]2CCCC2)sc1C[S+]1CCCC1`: the TGI in experiment [1], in [2], in experiment [3], in experiment [4], in experiment [6] and in experiment [7] was > 100 µM each time. In addition, the TGI in experiment [8], in experiment [9], in [19], in [10], in experiment [11] and in experiment [12] was > 100 µM in each case. The TGI in [13], in experiment [14], in [15], in [16], in experiment [17] and in experiment [18] was > 100 µM each time.

Take `O=C1COCCN1C(=O)c1ccccc1Cl`: the TGI in experiment [1], in experiment [2], in [3], in experiment [4], in experiment [6] and in [7] was > 100 µM each time. Further, the TGI in experiment [8], in experiment [9], in [19], in experiment [10], in [11] and in experiment [12] was > 100 µM in each case. In addition, the TGI in experiment [13], in [14], in [15], in experiment [16], in experiment [17] and in [18] was > 100 µM throughout.

For the compound `CCN(CC)CCCNc1ncc(C)c2c1c1ccc3c(O)cccc3c1n2C`, the TGI was 49.3 µM in experiment [1]; > 100 µM in experiment [2]; 4.64 µM in experiment [3]; 2.58 µM in experiment [4]; 33.8 µM in experiment [5]; 9.07 µM in experiment [7]. Also, the TGI in experiment [8] is 5.07 µM; in experiment [9], 2.29 µM; in experiment [19], 4.82 µM; in experiment [10], 2.34 µM; in [11], 5.04 µM; in [12], 3.4 µM. The TGI in experiment [13] was determined as 14.9 µM; in experiment [14] it was 4.05 µM; in experiment [15], 4.31 µM; in [16] it was 3.15 µM; in experiment [17], 4.76 µM; in experiment [18] it was 2.16 µM.

Take `CC1=CC(=O)/C(=C/n2c(=S)[nH]c3ccc([N+](=O)[O-])cc32)C(=O)O1`: the TGI in experiment [1], in experiment [2], in experiment [3], in experiment [4], in [5] and in experiment [6] was > 100 µM each time. The TGI in experiment [7] was > 100 µM; in experiment [8], 4.93 µM; in experiment [9], > 100 µM; in experiment [19], > 100 µM; in experiment [10], > 100 µM; in experiment [11], > 100 µM. The TGI in experiment [13], in [14], in experiment [15], in [16], in experiment [17] and in experiment [18] was > 100 µM in each case.

As for `N#CCc1nc(-c2cc3c(ccc4ccccc43)oc2=O)cs1`, the TGI is > 100 µM in experiment [1]; 70.2 µM in experiment [2]; > 100 µM in experiment [3]; 32.2 µM in experiment [4]; 72.4 µM in experiment [5]; > 100 µM in experiment [6]. Besides, the TGI was > 100 µM in experiment [7]; > 100 µM in [8]; 27.4 µM in experiment [9]; > 100 µM in experiment [10]; > 100 µM in experiment [11]; > 100 µM in [12]. The TGI is 51.4 µM in [13]; 31.5 µM in experiment [14]; > 100 µM in [15]; > 100 µM in experiment [16]; 71.2 µM in experiment [17]; > 100 µM in [18].

Take `CCOC(=O)c1cc(Br)c(-c2onc(C)c2Br)n1C`: the TGI was 57.7 µM in experiment [1]; > 100 µM in [2]; > 100 µM in experiment [3]; > 100 µM in experiment [4]; > 100 µM in experiment [5]; > 100 µM in experiment [6]. For the same compound, the TGI in experiment [7] was > 100 µM; in [8], 27.5 µM; in experiment [9], 72.7 µM; in experiment [19], > 100 µM; in experiment [10], 64.2 µM; in [12], 45.4 µM. Besides, the TGI is > 100 µM in experiment [13]; > 100 µM in experiment [14]; > 100 µM in experiment [15]; 69.5 µM in [16]; 76.2 µM in experiment [17]; > 100 µM in [18].
